What was measured:
Galectin-1 = Galectin-1 (Homo sapiens, UniProt P09382); details: T. Delaine 2016; read-out: affinity to Galectin-1; cited from earlier work
Gal-3 = Gal-3 (Homo sapiens, UniProt P17931); experiment: Fluorescence anisotropy assay, compound as inhibitor of galectin / fluorescein tagged saccharide probe interaction; assay type: binding
Experimental: (§1) The affinity of Example 1-29 for galectins were determined by a fluorescence anisotropy assay where the compound was used as an inhibitor of the interaction between galectin and a fluorescein tagged saccharide probe as described Sörme, P., Kahl-Knutsson, B., Huflejt, M., Nilsson, U. J., and Leffler H. (2004) Fluorescence polarization as an analytical tool to evaluate galectin-ligand interactions. Anal. Biochem. 334: 36-47, (Sörme et al., 2004) and Monovalent interactions of Galectin-1 By Salomonsson, Emma; Larumbe, Amaia; Tejler, Johan; Tullberg, Erik; Rydberg, Hanna; Sundin, Anders; Khabut, Areej; Frejd, Torbjorn; Lobsanov, Yuri D.; Rini, James M.; et al, From Biochemistry (2010), 49(44), 9518-9532, (Salomonsson et al., 2010).

Gal-1 = Gal-1 (Homo sapiens, UniProt P09382); experiment: as above; assay type: binding
Gal-1, sequence (P09382 whole entry): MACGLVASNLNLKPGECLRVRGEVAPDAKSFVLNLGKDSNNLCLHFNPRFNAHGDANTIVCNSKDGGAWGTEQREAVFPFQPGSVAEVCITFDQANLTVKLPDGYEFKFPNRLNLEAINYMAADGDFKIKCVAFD
Experimental: as §1

galectins = details: cited from earlier work

Gal-3, sequence (P17931 whole entry): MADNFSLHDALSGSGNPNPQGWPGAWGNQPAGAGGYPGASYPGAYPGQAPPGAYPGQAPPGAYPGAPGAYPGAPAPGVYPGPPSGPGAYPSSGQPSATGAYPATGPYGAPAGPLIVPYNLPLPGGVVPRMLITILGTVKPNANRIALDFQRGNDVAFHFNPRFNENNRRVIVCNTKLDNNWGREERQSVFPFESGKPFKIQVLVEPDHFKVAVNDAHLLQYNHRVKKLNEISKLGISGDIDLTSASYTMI
Galectin-1, sequence (P09382 whole entry, species assumed): as the sequence (P09382 whole entry) above

Row | Compound | Kd (Gal-3) [µM] | Kd (Gal-1) [µM] | Kd (Galectin-1) [µM] | affinity relative to lactose, times lower (galectins; compared with lactose) | Kd (galectins; Leffler 2001, Leffler et al. 2004, read-out: Kd, all galectins) [µM]
1 | OCC1O[C@@H](SC2O[C@H](CO)C(O)C(n3cc(-c4ccsc4)nn3)[C@H]2O)C(O)C(n2cc(-c3ccsc3)nn2)[C@H]1O (stereo partly shown) |  |  | < 0.01 |  | 
2 | Cc1nc2ccc(-n3cnnc3[C@@H]3O[C@H](CO)[C@H](O)[C@H](n4cc(-c5csc(N)n5)nn4)[C@H]3O)cc2s1 [Example 6, 6-{3-{3-[4-(2-Aminothiazol-4-yl)-1H-1,2,3-triazol-1-yl]-3-deoxy-β-D-galactopyranosyl}-4H-1,2,4-triazol-4-yl}-2-methylbenzothiazole] | 1.9 | 1.6 |  |  | 
3 | Cc1nc2ccc(-n3cnnc3[C@@H]3O[C@H](CO)[C@H](O)[C@H](n4cc(-c5csc(O)n5)nn4)[C@H]3O)cc2s1 [Example 8, 6-{3-{3-Deoxy-3-[4-(2-hydroxythiazol-4-yl)-1H-1,2,3-triazol-1-yl]-β-D-galactopyranosyl}-4H-1,2,4-triazol-4-yl}-2-methylbenzothiazole] | 1.9 | 0.32 |  |  | 
4 | Cc1nc([C@@H]2O[C@H](CO)[C@H](O)[C@H](n3cc(-c4nccs4)nn3)[C@H]2O)n(-c2ccc3nc(C)sc3c2)n1 [Example 10, 6-{5-{3-Deoxy-3-[4-(2-thiazolyl)-1H-1,2,3-triazol-1-yl]β-D-galactopyranosyl}-3-methyl-1H-1,2,4-triazol-1-yl}-2-methylbenzothiazole] | 2.3 | 5.2 |  |  | 
5 | Cc1nc([C@@H]2O[C@H](CO)[C@H](O)[C@H](n3cc(-c4csc(C)n4)nn3)[C@H]2O)n(-c2ccc3nc(C)sc3c2)n1 [Example 13, 6-{5-{3-Deoxy-3-[4-(2-methylthiazol-4-yl)-1H-1,2,3-triazol-1-yl]β-D-galactopyranosyl}-3-methyl-1H-1,2,4-triazol-1-yl}-2-methylbenzothiazole] | 1.8 | 9 |  |  | 
6 | Cc1nc([C@@H]2O[C@H](CO)[C@H](O)[C@H](n3cc(-c4cncs4)nn3)[C@H]2O)n(-c2ccc3nc(C)sc3c2)n1 [Example 14, 6-{5-{3-Deoxy-3-[4-(5-thiazolyl)-1H-1,2,3-triazol-1-yl]β-D-galactopyranosyl}-3-methyl-1H-1,2,4-triazol-1-yl}-2-methylbenzothiazole] | 2.3 | 19.5 |  |  | 
7 | Cc1nc([C@@H]2OC(CO)[C@H](O)C(n3cc(-c4csc(N)n4)nn3)C2O)n(-c2cc(Cl)ccc2C(F)(F)F)n1 (stereo partly shown) [Example 15] | 1.3 | 1.5 |  |  | 
8 | Cc1csc(-c2cn([C@H]3[C@@H](O)[C@@H](CO)O[C@@H](c4nncn4-c4ccc5nc(C)sc5c4)[C@@H]3O)nn2)n1 [Example 22, 6-{3-{3-Deoxy-3-[4-(4-methylthiazol-2-yl)-1H-1,2,3-triazol-1-yl]-β-D-galactopyranosyl}-4H-1,2,4-triazol-4-yl}-2-methylbenzothiazole] | 1.8 | 2.4 |  |  | 
9 | Cc1nc([C@@H]2O[C@H](CO)[C@H](O)[C@H](n3cc(-c4csc(N)n4)nn3)[C@H]2O)n(-c2ccc3nc(C)sc3c2)n1 [Example 24, 6-{5-{3-[4-(2-Aminothiazol-4-yl)-1H-1,2,3-triazol-1-yl]-3-deoxy-β-D-galactopyranosyl}-3-methyl-1H-1,2,4-triazol-1-yl}-2-methylbenzothiazole] | 2.6 | 3.2 |  |  | 
10 | O=C[C@H](O)[C@@H](O)[C@@H](O)[C@H](O)CO [Galactose, D-galactose] |  |  |  | 50-100 times lower | 
11 | OC[C@H]1O[C@@H](O[C@H]2[C@H](O)[C@@H](O)C(O)O[C@@H]2CO)[C@H](O)[C@@H](O)[C@H]1O (stereo partly shown) [lactose] |  |  |  |  | 100 to 1000

More lines, in order of falling Kd (Gal-3), values ahead:

Row | Kd (Gal-3) [µM] | Kd (Gal-1) [µM] | Compound | Kd (Galectin-1) [µM] | affinity relative to lactose, times lower (galectins; compared with lactose) | Kd (galectins; Leffler 2001, Leffler et al. 2004, read-out: Kd, all galectins) [µM]
12 | 1.2 | 3 | Cc1nc2ccc(-n3cnnc3[C@@H]3O[C@H](CO)[C@H](O)[C@H](n4cc(-c5nccs5)nn4)[C@H]3O)cc2s1 [Example 21, 6-{3-{3-Deoxy-3-[4-(2-thiazolyl)-1H-1,2,3-triazol-1-yl]-β-D-galactopyranosyl}-4H-1,2,4-triazol-4-yl}-2-methylbenzothiazole] |  |  | 
13 | 0.82 | 0.73 | Cc1nnc([C@@H]2O[C@H](CO)[C@H](O)[C@H](n3cc(-c4csc(N)n4)nn3)[C@H]2O)n1-c1cc(Cl)ccc1C(F)(F)F [Example 19, 1-{3-{3-[4-(2-Aminothiazol-4-yl)-1H-1,2,3-triazol-1-yl]-3-deoxy-β-D-galactopyranosyl}-5-methyl-4H-1,2,4-triazol-4-yl}-5-chloro-2-(trifluoromethyl)benzene] |  |  | 
14 | 0.7 | 2.1 | Cc1csc(-c2cn([C@H]3[C@@H](O)[C@@H](CO)O[C@@H](c4nnc(C)n4-c4cc(Cl)ccc4C(F)(F)F)[C@@H]3O)nn2)n1 [Example 11, 5-Chloro-1-{3-{3-deoxy-3-[4-(4-methylthiazol-2-yl)-1H-1,2,3-triazol-1-yl]-β-D-galactopyranosyl}-5-methyl-4H-1,2,4-triazol-4-yl}-2-(trifluoromethyl)benzene] |  |  | 
15 | 0.6 | 0.033 | Cc1nc2ccc(-n3nccc3[C@@H]3OC(CO)[C@H](O)C(n4cc(-c5nc(Cl)cs5)nn4)C3O)cc2s1 (stereo partly shown) [Example 29] |  |  | 
16 | 0.52 | 0.19 | Cc1nnc([C@@H]2O[C@H](CO)[C@H](O)[C@H](n3cc(-c4csc(O)n4)nn3)[C@H]2O)n1-c1cc(Cl)ccc1C(F)(F)F [Example 12, 5-Chloro-1-{3-{3-deoxy-3-[4-(2-hydroxythiazol-4-yl)-1H-1,2,3-triazol-1-yl]β-D-galactopyranosyl}-5-methyl-4H-1,2,4-triazol-4-yl}-2-(trifluoromethyl)benzene] |  |  | 
17 | 0.15 | 0.75 | Cc1nc2ccc(-n3cnnc3[C@@H]3O[C@H](CO)[C@H](O)[C@H](n4cc(-c5nc(Cl)cs5)nn4)[C@H]3O)cc2s1 [Example 1, 6-{3-{3-[4-(4-Chlorothiazol-2-yl)-1H-1,2,3-triazol-1-yl]-3-deoxy-β-D-galactopyranosyl}-4H-1,2,4-triazol-4-yl}-2-methylbenzothiazole] |  |  | 
18 | 0.15 | 0.69 | Cc1nnc([C@@H]2O[C@H](CO)[C@H](O)[C@H](n3cc(-c4nccs4)nn3)[C@H]2O)n1-c1cc(Cl)ccc1C(F)(F)F [Example 20, 5-Chloro-1-{3-{3-deoxy-3-[4-(2-thiazolyl)-1H-1,2,3-triazol-1-yl]β-D-galactopyranosyl}-5-methyl-4H-1,2,4-triazol-4-yl}-2-(trifluoromethyl)benzene] |  |  | 
19 | 0.14 | 2.1 | Cc1nc([C@@H]2O[C@H](CO)[C@H](O)[C@H](n3cc(-c4nc(Cl)cs4)nn3)[C@H]2O)n(-c2ccc3nc(C)sc3c2)n1 [Example 23, 6-{5-{3-[4-(4-Chlorothiazol-2-yl)-1H-1,2,3-triazol-1-yl]-3-deoxy-β-D-galactopyranosyl}-3-methyl-1H-1,2,4-triazol-1-yl}-2-methylbenzothiazole] |  |  | 
20 | 0.13 | 0.66 | Cc1nc([C@@H]2O[C@H](CO)[C@H](O)[C@H](n3cc(-c4nc(Cl)cs4)nn3)[C@H]2O)n(-c2cc(Cl)cnc2C2CC2)n1 [Example 18, 3-{5-{3-[4-(4-Chlorothiazol-2-yl)-1H-1,2,3-triazol-1-yl]-3-deoxy-β-D-galactopyranosyl}-3-methyl-1H-1,2,4-triazol-1-yl}-5-chloro-2-cyclopropylpyridine] |  |  | 
21 | 0.07 | 0.34 | CO[C@@H]1[C@@H](n2cc(-c3nc(Cl)cs3)nn2)[C@@H](O)[C@@H](CO)O[C@H]1c1nnc(C)n1-c1ccc2nc(C)sc2c1 [Example 25, 6-{3-{3-[4-(4-Chlorothiazol-2-yl)-1H-1,2,3-triazol-1-yl]-3-deoxy-2-O-methyl-β-D-galactopyranosyl}-5-methyl-4H-1,2,4-triazol-4-yl}-2-methylbenzothiazole] |  |  | 
22 | 0.065 | 0.59 | Cc1nc2ccc(-n3c(C)nnc3[C@@H]3O[C@H](CO)[C@H](O)[C@H](n4cc(-c5nc(Cl)cs5)nn4)[C@H]3O)cc2s1 [Example 26, 6-{3-{3-[4-(4-Chlorothiazol-2-yl)-1H-1,2,3-triazol-1-yl]-3-deoxy-β-D-galactopyranosyl}-5-methyl-4H-1,2,4-triazol-4-yl}-2-methylbenzothiazole] |  |  | 
23 | 0.041 | 0.29 | Cc1nnc([C@@H]2O[C@H](CO)[C@H](O)[C@H](n3cc(-c4nc(Cl)cs4)nn3)[C@H]2O)n1-c1cc(Cl)ccc1C(F)(F)F [Example 9, 1-{3-{3-[4-(4-Chlorothiazol-2-yl)-1H-1,2,3-triazol-1-yl]-3-deoxy-β-D-galactopyranosyl}-5-methyl-4H-1,2,4-triazol-4-yl}-5-chloro-2-(trifluoromethyl)benzene] |  |  | 
24 | 0.039 | 0.9 | Cc1nc([C@@H]2OC(CO)[C@H](O)C(n3cc(-c4nc(Cl)cs4)nn3)C2O)n(-c2cc(Cl)ccc2C(F)(F)F)n1 (stereo partly shown) [Example 16] |  |  | 
25 | 0.036 | 2.6 | Cc1nnc([C@@H]2OC(CO)[C@H](O)C(n3cc(-c4nc(Cl)cs4)nn3)C2O)n1-c1ccc2ncn(C)c2c1 (stereo partly drawn) [Example 27, 5-{3-{3-[4-(4-Chlorothiazol-2-yl)-1H-1,2,3-triazol-1-yl]-3-deoxy-β-D-galactopyranosyl}-5-methyl-4H-1,2,4-triazol-4-yl}-N-3-methylbenzimidazole] |  |  | 
26 | 0.026 | 0.52 | CO[C@@H]1[C@@H](n2cc(-c3nc(Cl)cs3)nn2)[C@@H](O)[C@@H](CO)O[C@H]1c1nnc(C)n1-c1cc(Cl)ccc1C(F)(F)F [Example 17, 1-{3-{3-[4-(4-Chlorothiazol-2-yl)-1H-1,2,3-triazol-1-yl]-3-deoxy-2-O-methyl-β-D-galactopyranosyl}-5-methyl-4H-1,2,4-triazol-4-yl}-5-chloro-2-(trifluoromethyl)benzene] |  |  | 
